≈ marks a conversion by molar mass, not a printed value. Entries after “also recorded” stand apart in the source; their conditions may differ. Read-outs that look alike come from different tables or passages of the source.
Columns and labels:
[1] = system: B. anthracis Sterne (pXO1+, pXO2−); assay: microbe, parasite or virus in culture; assay type: cell-based; settings: Bacillus anthracis
S. flexneri [2] = assay: microbe, parasite or virus in culture; assay type: cell-based; settings: Shigella flexneri
trans-translation = assay type: biochemical, E. coli; settings: 10 μM final concentration; DHFR template lacking the stop codon; tagging efficiency vs no inhibitor control
B. subtilis = assay: microbe, parasite or virus in culture; assay type: cell-based; settings: Bacillus subtilis, 24 h, read-out: MIC B. subtilis
WT B. anthracis Sterne = assay: microbe, parasite or virus in culture; assay type: cell-based; settings: Bacillus anthracis, 24 h, read-out: IC50 WT B. anthracis
B. anthracis ΔclpX = assay: microbe, parasite or virus in culture; assay type: cell-based; settings: Bacillus anthracis, 24 h, read-out: IC50 ΔclpX
B. anthracis ΔclpX+pclpX = assay: microbe, parasite or virus in culture; assay type: cell-based; settings: Bacillus anthracis, 24 h, read-out: IC50 ΔclpX + pclpX
WT+pUTE29 (empty vector) = assay: microbe, parasite or virus in culture; assay type: cell-based, B. anthracis; settings: Bacillus anthracis, 24 h, read-out: IC50 WT + pUTE29
ΔclpX+pUTE29 = assay: microbe, parasite or virus in culture; assay type: cell-based, B. anthracis; settings: Bacillus anthracis, 24 h, read-out: IC50 ΔclpX + pUTE29
S. flexneri [3] = assay: microbe, parasite or virus in culture; assay type: cell-based; settings: Shigella flexneri, 24 h, read-out: IC50 S. flexneri
Mycobacterium smegmatis = assay: microbe, parasite or virus in culture; assay type: cell-based; settings: Mycolicibacterium smegmatis, read-out: MIC Mycobacterium smegmatis
E. coli TolC mutant = assay: microbe, parasite or virus in culture; assay type: cell-based; settings: Escherichia coli, read-out: MIC E. coil TolC
B. anthracis spores = assay type: cell-based
[4] = system: Auto-luminescent M. tuberculosis (LuxTB); assay: microbe, parasite or virus in culture; assay type: cell-based; settings: Mycobacterium tuberculosis, read-out: IC50 M. tuberculosis
B. anthracis Sterne = assay type: cell-based
B. anthracis = assay type: cell-based
[5] = system: S. aureus methicillin-susceptible strain, Newman; assay type: cell-based
MRSA strain, Sanger 252 = assay type: cell-based, S. aureus
HeLa cells = settings: human
[6] = system: Wild-type M. tuberculosis; assay: microbe, parasite or virus in culture; assay type: cell-based; settings: Mycobacterium tuberculosis, read-out: MIC against M. tuberculosis
[7] = 24 h, read-out: MIC B. anthracis
[8] = read-out: MIC Bacillus anthracis
[9] = 24 h, read-out: MIC S. flexneri

CCCn1nnnc1NC(=O)C1CCCC1 [Compound 8, N-(1-propyl-1H-tetrazol-5-yl)cyclopentane-carboxamide]
MIC ([1]; read-out: MIC B. anthracis): > 500 µM
MIC (S. flexneri [2]; read-out: MIC S. flexneri): > 500 µM

CCCn1nnnc1NC(=O)c1cccc(Br)c1 [Compound 2, 3-bromo-N-(1-propyl-1H-tetrazol-5-yl)benzamide]
MIC ([1]; read-out: MIC B. anthracis): > 500 µM
MIC (S. flexneri [2]; read-out: MIC S. flexneri): 250 µM (≈ 77.5 µg/mL)

O=C(NC1CCCC1)c1cccc(Cl)c1 [Compound 13, 3-chloro-N-cyclopentylbenzamide]
MIC ([1]; read-out: MIC B. anthracis): > 500 µM
MIC (S. flexneri [2]; read-out: MIC S. flexneri): > 500 µM
% inhibition in vitro (trans-translation): 71.6%

CCCn1nnnc1NC(=O)c1cccc(Cl)c1 [Compound F2, reference compound]
MIC [1, 7]: 31.2 µM (≈ 8.29 µg/mL)
MIC ([1]; read-out: MIC B. anthracis): 25 µM (≈ 6.64 µg/mL)
MIC [1, 8]: 25 µM (≈ 6.64 µg/mL)
MIC (B. subtilis): 26.1 µM (≈ 6.93 µg/mL)
MIC (S. flexneri [2]; [9]): 7.8 µM (≈ 2.07 µg/mL)
MIC (S. flexneri [2]; read-out: MIC S. flexneri): 3.13 µM (≈ 0.832 µg/mL)
MIC (S. flexneri [2]; read-out: MIC Shigella flexneri): 3.1 µM (≈ 0.824 µg/mL)
IC50 (WT B. anthracis Sterne): 17.6 µM
IC50 (B. anthracis ΔclpX): 27 µM
IC50 (B. anthracis ΔclpX+pclpX): 14.8 µM
IC50 (WT+pUTE29 (empty vector)): 27.5 µM
IC50 (ΔclpX+pUTE29): 22.3 µM
IC50 (S. flexneri [3]): 5.95 µM
MIC (Mycobacterium smegmatis): 25 µM (≈ 6.64 µg/mL)
MIC (E. coli TolC mutant): 12.5 µM (≈ 3.32 µg/mL)
Vegetative cells from spores (inhibition of spore germination) (B. anthracis spores): No vegetative cells were observed
% inhibition in vitro (trans-translation): 88.0%
IC50 ([4]; 48 h): 292 µM
IC50 ([4]; 72 h): 226 µM
IC50 ([4]; 96 h): 115 µM
Bacterial survival (cfu/ml) of B. anthracis Sterne (B. anthracis Sterne): significantly reduced bacterial survival in a synergistic manner
Direct antimicrobial activity against B. anthracis Sterne (B. anthracis Sterne): direct antimicrobial activity
Survival of B. anthracis Sterne vs vehicle control (B. anthracis Sterne): negligible effect on survival
Killing of B. anthracis in human whole blood vs vehicle control (B. anthracis): significantly enhanced killing
Survival of S. aureus Newman [5]: only slightly reduced; also recorded: No colonies were recovered
Bacterial survival (cfu/ml) of MRSA (MRSA strain, Sanger 252): significantly reduced bacterial survival in a synergistic manner
Direct antimicrobial activity against MRSA Sanger 252 (MRSA strain, Sanger 252): direct antimicrobial activity
Reduction of survival of MRSA Sanger 252 (MRSA strain, Sanger 252): at least 10,000 fold
Survival of MRSA Sanger 252 (MRSA strain, Sanger 252): only slightly reduced
Dose at which cytotoxicity in mammalian cells is seen (HeLa cells): 500 to 1000 µM

O=C(Nc1ccccc1)c1cccc(Cl)c1 [Compound 10, 3-chloro-N-phenylbenzamide]
MIC ([1]; read-out: MIC B. anthracis): > 500 µM
MIC (S. flexneri [2]; read-out: MIC S. flexneri): > 500 µM
% inhibition in vitro (trans-translation): 68.1%

CN(C)c1cccc2c(S(=O)(=O)NCCn3nnnc3NC(=O)c3cccc(Cl)c3)cccc12 [Dansyl-F2, 3-chloro-N-(1-(2-(5-(dimethylamino)naphthalene-1-sulfonamido)ethyl)-1H-tetrazol-5-yl)benzamide]
MIC [1, 7]: 7.8 µM (≈ 3.9 µg/mL)
MIC [1, 8]: 5.3 µM (≈ 2.65 µg/mL)
MIC (B. subtilis): 13.3 µM (≈ 6.65 µg/mL)
MIC (S. flexneri [2]; [9]): > 200 µM
IC50 (WT B. anthracis Sterne): 5.28 µM
IC50 (B. anthracis ΔclpX): 5.93 µM
IC50 (B. anthracis ΔclpX+pclpX): 6.22 µM
IC50 (WT+pUTE29 (empty vector)): 9.88 µM
IC50 (ΔclpX+pUTE29): 6.28 µM
IC50 (S. flexneri [3]): > 200 µM
MIC (E. coli TolC mutant): 25 µM (≈ 12.5 µg/mL)
Vegetative cells from spores (inhibition of spore germination) (B. anthracis spores): No vegetative cells were observed
% inhibition in vitro (trans-translation): 89.1%
IC50 ([4]; 48 h): 181 µM
IC50 ([4]; 72 h): 100 µM
IC50 ([4]; 96 h): 96.4 µM
MIC [6]: ~50 µM (≈ 25 µg/mL)

CCCCCCCCCC(=O)N[C@@H](Cc1c[nH]c2ccccc12)C(=O)N[C@H](CC(N)=O)C(=O)N[C@@H](CC(=O)O)C(=O)N[C@@H]1C(=O)NCC(=O)N[C@@H](CCCN)C(=O)N[C@@H](CC(=O)O)C(=O)N[C@H](C)C(=O)N[C@@H](CC(=O)O)C(=O)NCC(=O)N[C@H](CO)C(=O)N[C@@H]([C@H](C)CC(=O)O)C(=O)N[C@@H](CC(=O)c2ccccc2N)C(=O)O[C@@H]1C [daptomycin]
Effect on parental and complemented B. anthracis strains (B. anthracis Sterne): not significantly affected

CCCn1nnnc1NC(=O)c1ccccc1 [Compound 1, N-(1-propyl-1H-tetrazol-5-y1)benzamide]
MIC ([1]; read-out: MIC B. anthracis): > 500 µM
MIC (S. flexneri [2]; read-out: MIC S. flexneri): > 500 µM

CCCn1nnnc1NC(=O)C1CCCCC1 [Compound 7, N-(1-propyl-1H-tetrazol-5-yl)cyclohexane-carboxamide]
MIC ([1]; read-out: MIC B. anthracis): > 500 µM
MIC (S. flexneri [2]; read-out: MIC S. flexneri): > 500 µM

LL-37
Survival of B. anthracis Sterne vs vehicle control (B. anthracis Sterne): negligible effect on survival
Survival of S. aureus Newman [5]: only slightly reduced
Survival of MRSA Sanger 252 (MRSA strain, Sanger 252): only slightly reduced

O=C(NC1CCCCC1)c1cccc(Cl)c1 [Compound 12, 3-chloro-N-cyclohexylbenzamide]
MIC ([1]; read-out: MIC B. anthracis): > 500 µM
MIC (S. flexneri [2]; read-out: MIC S. flexneri): > 500 µM
% inhibition in vitro (trans-translation): 44.6%

O=C(Nc1nnnn1CCNS(=O)(=O)c1ccccc1)c1cccc(Cl)c1 [Compound 16, 3-chloro-N-(1-(2-(phenylsulfonamido)ethyl)-1H-tetrazol-5-yl)benzamide]
MIC [1, 8]: 400 µM (≈ 163 µg/mL)
% inhibition in vitro (trans-translation): 37.0%

CCCn1nnnc1NC(=O)c1ccc(N(CC)CC)cc1 [Compound 5, 4-(diethylamino)-N-(1-propyl-1H-tetrazol-5-yl)-benzamide]
MIC ([1]; read-out: MIC B. anthracis): > 500 µM
MIC (S. flexneri [2]; read-out: MIC S. flexneri): > 500 µM

CS(=O)(=O)NCCn1nnnc1NC(=O)c1cccc(Cl)c1 [Compound 14]
% inhibition in vitro (trans-translation): 47.8%

CCCn1nnnc1NC(=O)c1ccc(N(C)C)cc1 [Compound 4, 4-(dimethylamino)-N-(1-propyl-1H-tetrazol-5-yl)benzamide]
MIC ([1]; read-out: MIC B. anthracis): > 500 µM
MIC (S. flexneri [2]; read-out: MIC S. flexneri): > 500 µM
% inhibition in vitro (trans-translation): 74.9%

O=C(Nc1ccncc1)c1cccc(Cl)c1 [Compound 11, 3-chloro-N-(pyridin-4-yl)benzamide]
MIC ([1]; read-out: MIC B. anthracis): > 500 µM
MIC (S. flexneri [2]; read-out: MIC S. flexneri): 500 µM (≈ 116 µg/mL)
% inhibition in vitro (trans-translation): 57.9%

O=C(Nc1nnn[nH]1)c1cccc(Cl)c1 [Compound 9]
% inhibition in vitro (trans-translation): 78.9%

CCCn1nnnc1NC(=O)c1cccc(F)c1 [Compound 3, 3-fluoro-N-(1-propyl-1H-tetrazol-5-yl)benzamide]
MIC ([1]; read-out: MIC B. anthracis): > 500 µM
MIC (S. flexneri [2]; read-out: MIC S. flexneri): > 500 µM

NCCn1nnnc1NC(=O)c1cccc(Cl)c1 [Compound D, N-(1-(2-aminoethyl)-1H-tetrazol-5-yl)-3-chlorobenzamide]
MIC [1, 7]: > 200 µM
MIC (B. subtilis): > 200 µM
MIC (S. flexneri [2]; [9]): > 200 µM
% inhibition in vitro (trans-translation): 52.3%
